In US12616649B2, “Composition containing plant extracts” (LG HOUSEHOLD & HEALTH CARE LTD., priority 2020, dated 2026):

Experiments:
[1] = tested on: B-16 mouse melanoma cells; assay: Effect of reducing total amount of melanin (whitening); type: cell-based; conditions: control group
Procedure: After a sample was added to the culture medium of B-16 mouse melanoma cells, a whitening effect was confirmed by measuring the total amount of melanin at the cellular level (Lotan R., Lotan D. Cancer Res. 40:3345-3350, 1980). Before the experiment, toxicity evaluation was performed on mouse melanoma cells to select a concentration without toxicity, and then whitening evaluation was performed at the concentration.
As a control, arbutin was added to the culture medium at a concentration of 200 ppm. B-16 melanoma cells treated with the sample or arbutin were cultured for 3 days.
Thereafter, the cells were removed from a culture vessel and centrifuged, 1 ml of sodium hydroxide solution (1N concentration) was added to the centrifuged cell pellet, heating was performed at 80° C. for 10 minutes to dissolve melanin, and using a spectrophotometer, absorbance at 400 nm was measured to measure the amount of melanin produced.
The amount of melanin was determined according to absorbance per unit cell number (1×10^6 cells). In addition, based on a non-addition control group, the relative total amount of melanin in the experimental group treated with each sample was calculated as inhibition rate (%), and the results are summarized in the table below.

[2] = tested on: RAW264.7 cells; assay: NO generation inhibitory effect (GRIESS method, LPS stimulus); type: cell-based, mouse
Procedure: To check the anti-inflammatory effect and skin trouble alleviation effect of each sample, an experiment was conducted to evaluate inhibition of nitric oxide (NO) formation by the GRIESS method using the RAW264.7 cell line (ATCC number: CRL-2278).
Specifically, RAW264.7 cells, which are macrophages of mice, were subcultured several times, and the cells were seeded at a cell density of 3×10^5 cells per well in a 24-well plate, followed by cell culture for 24 hours. At this time, as a positive control, the cells were treated with L-NG-monomethylarginine (L-NMMA), a NO-production inhibitor, to a final concentration of 5 ppm and cultured for 30 minutes. Then, the cells were treated with lipopolysaccharide (LPS) as a stimulus at a concentration of 1 μg/ml and cultured for 24 hours. 100 μl of the supernatant was transferred to a 96-well plate, 100 μl of a GRIESS solution was added thereto, and then reaction was performed at room temperature for 10 minutes. Then, absorbance at 540 nm was measured, and the NO inhibitory effect of each sample was determined based on the absorbance, and the results are shown in the table below.

[3] = Antioxidant effect, free radical scavenging (DPPH); type: physicochemical; conditions: control group
Procedure: To confirm antioxidant activity, free radical scavenging activity was measured using DPPH. DPPH was purchased from Sigma Co., Ltd. (USA). First, a standard DPPH ethanol solution with a concentration of […] (0.06 mg/ml) was prepared. Then, ethanol was added to each extract and ascorbic acid as a reference material, which is known as an antioxidant, to prepare samples at a concentration of 0.1%, and serial dilution was performed. Then, the sample and the standard DPPH solution were added in the same ratio and stirred, followed by reaction at 37° C. for 30 minutes. Then, absorbance was measured at 517 nm. At this time, addition of ethanol instead of the sample was used as a control. Free radical scavenging ability was measured by calculating IC50, which is half maximal inhibitory concentration, and the results are shown in the following table. IC50 is a general method of expressing free radical scavenging ability as the concentration of ascorbic acid and extract required to remove 50% of free radicals of a non-addition control group.

[4] = tested on: human dermal fibroblasts; assay: Hyaluronic acid synthesis enhancement (Hyaluronan ELISA); type: cell-based; conditions: 10 ppb
Procedure: Human-derived fibroblasts (human dermal fibroblasts) cultured in a DMEM culture medium containing 10% fetal bovine serum at a cell density of 1×10^5 cells/mL, and 500 μl of the cell culture medium was added to each well of a 24-well plate. After incubation for 18 hours, the samples were diluted with a DMEM culture medium without fetal bovine serum, and each sample was added at the following concentrations. […] After incubation for 24 hours, the cell culture medium was recovered, and the concentration of hyaluronic acid was measured using a Hyaluronan ELISA kit (R&D Systems).

[5] = tested on: Aspergillus niger; assay: Antibacterial effect, MIC, fungi (serial dilution); type: cell-based
Procedure: MICs were measured for fermented cultures of Staphylococcus aureus and Aspergillus niger.
The serial dilution method was used for both bacteria, and the MIC of fermentation culture was confirmed by visually comparing the turbidity between wells after the incubation was completed.
The minimum inhibitory concentration of each extract was expressed as % (w/v), and MIC (%) in each table means % (w/v) unless otherwise stated.

[6] = tested on: P. aeruginosa; assay: MIC of the hexanediol control, bacteria as named in the tables; type: cell-based; conditions: control group
[7] = tested on: human-derived fibroblasts; assay: Promotion of type I collagen synthesis (PICP EIA kit); type: cell-based; conditions: 10 ppb
Procedure: Each sample was added to the culture medium of human-derived fibroblasts to confirm the effect of promoting synthesis of type I collagen at the cellular level. Measurement of synthesized collagen was quantified using a Procollagen Type I C-Peptide Enzyme Immuno Assay KIT (PICP ETA kit). To measure the amount of synthesized collagen, each sample was added to a fibroblast culture medium (DMEM culture medium). After cell culture for 48 hours, the culture medium was taken, and the degree of synthesis of type I collagen at each concentration was measured at 450 nm using a spectrophotometer using the PICP ETA kit.
For comparison of the effects, a collagen synthesis level was measured in the same manner for the culture medium of untreated fibroblasts (negative control) and a sample (positive control) to which TGFb was added to a final concentration of 10 ppb. A collagen production increase rate was calculated as the ratio of relative collagen production to the negative control group, and the results are shown in the table below.

Compound: OC[C@H]1O[C@@H](Oc2ccc(O)cc2)[C@H](O)[C@@H](O)[C@@H]1O [Aibutin]
- Whitening Melanin content (%) ([1]; Arbutin 200 ppm): 35%

Compound: OC[C@H]1O[C@@H](Oc2ccc(O)cc2)[C@H](O)[C@@H](O)[C@@H]1O [Arbutin, arbutin]
- Whitening Melanin content (%) ([1]; 200 ppm): 35%

Compound: CNC(=N)NCCC[C@H](N)C(=O)O [L-NMMA, L-NG-monomethylarginine]
- Anti-inflammation Inhibition of NO production (%) ([2]; control group, 5 ppm): 28%
- Anti-inflammation Inhibition of NO production (%) ([2]; control group, L-NMMA 5 ppm): L-NMMA (5 ppm) 28%
- Anti-inflammation Inhibition of NO production (%) ([2]; positive control, 5 ppm): 28%

Compound: O=C1O[C@H]([C@@H](O)CO)C(O)=C1O [Vitamin C, ascorbic acid]
- Anti-oxidation IC50 [3]: 7.5 ppm
- Anti-oxidation IC50 ([3]; DPPH): 7.5 ppm

Compound: EGF: epidermal growth factor, known to promote hyaluronic acid production
- Moisturizing HA synthesis (%) ([4]; control group): 320%
- Moisturizing HA synthesis (%) ([4]; positive control): 320%

Compound: Hexanediol
- Anti-bacteria MIC (%) Fungi ([5]; % (w/v), A. niger, 30° C., 48 hours): Fungi: A. niger 1%
- Anti-bacteria MIC (%) Fungi ([5]; Fungi): Fungi: A. niger 1%
- Anti-bacteria MIC (%) Fungi ([5]; Fungi (A. niger)): Fungi: A. niger 1%
- Anti-bacteria MIC (%) Fungi ([5]; Fungi (A.niger)): Fungi: A.niger 1%
- Anti-bacteria MIC (%) Fungi ([5]; Fungi (control line: A. niger)): Fungi: A. niger 1%
- Anti-bacteria MIC (%) Fungi: A. niger ([5]; control group, A. niger): Fungi: A. niger 1%
- Anti-bacteria MIC (%) Bacteria: P. aeruginosa [6]: Bacteria: P. aeruginosa 2%
- Anti-bacteria MIC (%) Bacteria: P. aeruginosa ([6]; P. aeruginosa): Bacteria: P. aeruginosa 2%
- Anti-bacteria MIC (%) Bacteria: P. aeruginosa ([6]; Bacteria: P. aeruginosa): Bacteria: P. aeruginosa 2%
- Anti-bacteria MIC Bacteria: P. aeruginosa ([6]; Bacteria: P. aeruginosa): Bacteria: P. aeruginosa 2%

Compound: TGFb: positive control for collagen synthesis, 10 ppb
- Anti-wrinkle Collagen synthesis (% of control) ([7]; control group): 25%
- Anti-wrinkle Collagen synthesis (% of control) ([7]; positive control): 25%
